The test system of the test is bacterial strains that express KPC β-lactamases. As to the kind of experiment: Synergy MIC / standard BLI potentiation MIC assay against strains expressing KPC β-lactamases. In kind it is cell-based. The following applies: in the presence of a β-lactam; comparator Avibactam. In outline:
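Broth microdilution per modified CLSI M07-A9 in CAMHB, ~10^5 CFU/mL, 18-20 h at 37 °C with aeration; engineered E. coli carrying cloned β-lactamase plasmids kept in 25 μg/mL tetracycline. β-Lactam MIC read with BLI fixed at 4 μg/mL, or BLI serially diluted against fixed β-lactam; MIC = lowest concentration without visible turbidity.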

SMILES strings stand for the structures. Structures can show the parent of a compound that is named as a salt.

Experimental findings from patent US8933232B2, “1,3,4-oxadiazole and 1,3,4-thiadiazole beta-lactamase inhibitors” (priority 2012, dated 2015) are described below.

For the compound `NC1CCN(Cc2nnc([C@@H]3CC[C@@H]4CN3C(=O)N4OS(=O)(=O)O)o2)CC1` [Compound 774, (2S,5R)-2-(5-((4-aminopiperidin-1-yl)methyl)-1,3,4-oxadiazol-2-yl)-7-oxo-1,6-diazabicyclo[3.2.1]octan-6-yl hydrogen sulfate], the “more active than Avibactam for at least one bacterial strain that expresses KPC β-lactamase and/or better spectrum of activity against KPC strains” value (shortened to “more active than Avibactam … against KPC strains”) is “more active than Avibactam”.

In the case of `NC1CCN(CCc2nnc([C@@H]3CC[C@@H]4CN3C(=O)N4OS(=O)(=O)O)o2)CC1` [Compound 775, (2S,5R)-2-(5-(2-(4-aminopiperidin-1-yl)ethyl)-1,3,4-oxadiazol-2-yl)-7-oxo-1,6-diazabicyclo[3.2.1]octan-6-yl hydrogen sulfate], the “more active than Avibactam … against KPC strains” value is given as “more active than Avibactam”.

Turning to `O=C1N2C[C@@H](CC[C@H]2c2nnc(CCN3CCNCC3)o2)N1OS(=O)(=O)O` [Compound 776, (2S,5R)-7-oxo-2-(5-(2-(piperazin-1-yl)ethyl)-1,3,4-oxadiazol-2-yl)-1,6-diazabicyclo[3.2.1]octan-6-yl hydrogen sulfate], the “more active than Avibactam … against KPC strains” value was “more active than Avibactam”.

For the compound `O=C1N2C[C@@H](CC[C@H]2c2nnc(CN3CCNCC3)o2)N1OS(=O)(=O)O` [Compound 777, (2S,5R)-7-oxo-2-(5-(piperazin-1-ylmethyl)-1,3,4-oxadiazol-2-yl)-1,6-diazabicyclo[3.2.1]octan-6-yl hydrogen sulfate], the “more active than Avibactam … against KPC strains” value is recorded as “more active than Avibactam”.

`O=C1N2C[C@@H](CC[C@H]2c2nnc([C@H]3CNCCN3)o2)N1OS(=O)(=O)O` [Compound 779, (2S,5R)-7-oxo-2-(5-((R)-piperazin-2-yl)-1,3,4-oxadiazol-2-yl)-1,6-diazabicyclo[3.2.1]octan-6-yl hydrogen sulfate]: the “more active than Avibactam … against KPC strains” value was “more active than Avibactam”.

`C[n+]1ccc(-c2nnc([C@@H]3CC[C@@H]4CN3C(=O)N4OS(=O)(=O)[O-])o2)cc1` [Compound 782, (2S,5R)-2-(5-(1-methylpyridin-1-ium-4-yl)-1,3,4-oxadiazol-2-yl)-7-oxo-1,6-diazabicyclo[3.2.1]octan-6-yl sulfate]: the “more active than Avibactam … against KPC strains” value was “more active than Avibactam”.

As for `N[C@H]1C[C@H](c2nnc([C@@H]3CC[C@@H]4CN3C(=O)N4OS(=O)(=O)O)s2)C1` [Compound 783, (2S,5R)-2-(5-((1r,3S)-3-aminocyclobutyl)-1,3,4-thiadiazol-2-yl)-7-oxo-1,6-diazabicyclo[3.2.1]octan-6-yl hydrogen sulfate], the “more active than Avibactam … against KPC strains” value is on record as “more active than Avibactam”.

Take `N=C(N)N[C@H]1C[C@@H](c2nnc([C@@H]3CC[C@@H]4CN3C(=O)N4OS(=O)(=O)O)s2)C1` [Compound 784, (2S,5R)-2-(5-((1s,3R)-3-guanidinocyclobutyl)-1,3,4-thiadiazol-2-yl)-7-oxo-1,6-diazabicyclo[3.2.1]octan-6-yl hydrogen sulfate]: the “more active than Avibactam … against KPC strains” value was “more active than Avibactam”.

For `N=C(N)NCCc1nnc([C@@H]2CC[C@@H]3CN2C(=O)N3OS(=O)(=O)O)s1` [Compound 794, (2S,5R)-2-(5-(2-guanidinoethyl)-1,3,4-thiadiazol-2-yl)-7-oxo-1,6-diazabicyclo[3.2.1]octan-6-yl hydrogen sulfate], the “more active than Avibactam … against KPC strains” value is given as “more active than Avibactam”.

With `N[C@H]1C[C@@H](c2nnc([C@@H]3CC[C@@H]4CN3C(=O)N4OS(=O)(=O)O)s2)C1` [Compound 795, (2S,5R)-2-(5-((1s,3R)-3-aminocyclobutyl)-1,3,4-thiadiazol-2-yl)-7-oxo-1,6-diazabicyclo[3.2.1]octan-6-yl hydrogen sulfate], the “more active than Avibactam … against KPC strains” value is given as “more active than Avibactam”.
